Experimental data from publication PMC11546719, “Immune Modulatory Profile of the Pateamines PatA and Des-Methyl Des-Amino PatA” (International Journal of Molecular Sciences, 2024).

Assays:
B cells = experiment: Energy metabolism (Seahorse OCR/ECAR) in B cells; type: cell-based, human; details: 5 days, PatA, DMDA 0.25-0.5 nM, silvestrol 5 nM, rapamycin 10 ng/mL
Description: The determination of the energy metabolism was performed as described previously. Briefly, for the analysis of the extracellular acidification rate (ECAR) and the oxygen consumption rate (OCR) for human B cells, Tcells, M1 MdMs and M2 MdMs, the Seahorse XFe96 FluxPak (Agilent, Waldbronn, Germany) was used as recommended by the manufacturer. MdMs were polarized to M1 or M2 MdMs in the presence of PatA (0.5, 2.5, 5 nM), DMDA (0.5, 2.5, 5 nM) or vehicle (DMSO) for 48 h or 24 h, respectively. T cells were activated in the presence of PatA (0.25, 0.5 nM), DMDA (0.25, 0.5 nM), silvestrol or DMSO. B cells were activated in the presence of PatA (0.25, 0.5 nM), DMDA (0.25, 0.5 nM), silvestrol (5 nM) or rapamycin (10 ng/mL positive control). Cells were washed with Seahorse XF RPMI medium pH 7.4 (Agilent, Waldbronn, Germany) and OCR and ECAR were measured as octuplicates for a period of 160 min using the Seahorse XFe96 Analyzer (Agilent, Waldbronn, Germany) and analyzed by Wave Software 2.6.3.8 (Agilent, Waldbronn, Germany). The relative values were calculated by relating the OCR or ECAR values obtained after 50 min to the values of the vehicle control (not stimulated).

M2 MdMs = experiment: Polarization of MdMs to M2 MdMs (zombie staining, flow cytometry, ELISA/CBA); type: cell-based, human; details: for Inflammatory environment (inflammatory mediators in supernatant): ELISA or CBA; for Apoptosis (zombie staining): IL-4 polarization, 0.5-5 nM; for Effect on the release of inflammatory markers, M2 MdM: summary table
Description: The differentiation of human monocytes to macrophages (MdMs) was performed as previously described. Briefly, 0.5 × 10^6 CD14^+ cells/well were pretreated with different concentrations of PatA and DMDA or vehicle (DMSO) for 30 min. After pre-incubation, differentiation was initiated by the addition of 10 ng/mL GM-CSF for M1 MdMs or 50 ng/mL M-CSF for M2 MdMs and incubated for 7 days.
The polarization of MdMs to M1 or M2 MdMs was performed as previously described. M1 and M2 MdM polarization was conducted in separate experiments. Briefly, M1 MdMs were polarized in presence of PatA (0.5, 2.5, 5 nM), DMDA (0.5, 2.5, 5 nM) or vehicle (DMSO) with 20 ng/mL human IFN-γ for 48 h. M2 MdMs were polarized in presence of PatA (0.5, 2.5, 5 nM), DMDA (0.5, 2.5, 5 nM) or vehicle (DMSO) with 10 ng/mL human IL-4 for 24 h.
Surface marker analysis was performed as described previously. Briefly, 1.5–2 × 10^5 cells of each sample were blocked with human FcR Blocking Reagent (15 min, 4 °C). A Zombie Aqua™ Fixable Viability Kit (1:500 dilution, BioLegend, San Diego, CA, USA) was used according to the manufactory protocol to discriminate living and dead cells. Afterwards, samples were stained with a mixture of different surface marker antibodies (15 min, 4 °C) and measured with MACSQuant® Analyzer 10 flow cytometer. For M1-/M2-MdMs anti-CD86, anti-CD14, anti-HLA-DR, anti-CD206, anti-CD80, anti-TREM2 and anti-CD163 were used. For T cells, anti-CD69, anti-CD54, anti-CD49a, anti-CD18, anti-CD134, anti-CD154, anti-CD3 and anti-CD25 were analyzed. For B cells, anti-CD27, anti-CD19 and anti-CD38 were applied. For T cell and B cell proliferation assay, freshly isolated T and B cells were stained with CTV and detected using flow cytometry. Naïve B cells were characterized as CD19^+CD27^lowCD38^med, memory B cells as CD19^+CD27^med CD38^low and plasma cells as CD27^+CD38^+ cells. M1 MdMs and M2 MdMs cell population was gated using FSC/SSC channel. T cells were gated as CD3^+CD25^+ positive cells. The geometric mean of the fluorescent intensity was calculated using FlowJo software v10 (Treestar, Ashland, […], USA). Fold induction of surface marker expression was calculated using the DMSO-treated cells as the control.
For determination of cytokine concentrations in the supernatant of humane immune cells, cytometric bead array (BD Biosciences, Heidelberg, Germany) for IL-10, IL-17, IL-8, IL-6, IFN-γ and CCL2 was used. For the detection of CCL18, CCL17, IgG, IgA and PGE2, an ELISA was performed. The cytometric bead arrays and the ELISAs were performed according to the protocol of the supplier.

Caco-2 cell barrier = experiment: Transport assay, Caco-2 cell barrier; type: in vitro ADME; details: for Permeability / transport rate across Caco-2 cell barrier (in words): 4 and 24 h, PatA, DMDA 5, 50, 100 nM, controls 200 µM
Description: The transport assay was achieved as described previously. Briefly, 1 × 10^5 CaCo-2 or 5 × 10^4 Calu-3 cells in 300 µL medium were seeded on 24-well ThinCerts (pre-coated with FCS for 60 min) and in the lower compartment, 1 mL culture medium per well was added. The Caco-2 cell barrier was generated over 20 days and the Calu-3 barrier was generated over 14 days. DMDA (0 nM, 5 nM, 50 nM, 100 nM), PatA (0 nM, 5 nM, 50 nM, 100 nM), 200 µM famotidine, 200 µM lucifer yellow or 200 µM carbamazepine diluted in medium was added to the apical compartment and incubated for 4 h or 24 h. The medium from the basolateral and apical compartment was collected and stored at −20 °C and analyzed using LC-MS/MS. To obtain the transport rate, the drug amount in the basolateral compartment at 4 h or 24 h was related to the drug amount in the apical compartment (0 h).
The detailed method for the analysis of DMDA, PatA, carbamazepine and famotidine using LC-MS/MS is described in the Supplementary Materials.

[1] = M2 MdMs, CD163low population, 24 h

| Structure (SMILES) | Energy metabolism: glycolysis (ECAR) and oxidative phosphorylation (OCR) (B cells) | TREM2 surface marker expression (M2 MdMs; M2 MdMs, CD163low population, 24 h, 5 nM) | Inflammatory environment (inflammatory mediators in supernatant) (M2 MdMs; M2 MdMs) | Apoptosis (zombie staining) (M2 MdMs; M2 MdMs, 24 h) | Effect on the release of inflammatory markers, M2 MdM (M2 MdMs) | Transport rate with Caco-2 cell barrier (Caco-2 cell barrier; 100 nM, 24 h) | Permeability / transport rate across Caco-2 cell barrier (in words) (Caco-2 cell barrier) | CD80 surface marker expression (M2 MdMs; [1]) | CD206 surface marker expression (M2 MdMs; [1]) |
| --- | --- | --- | --- | --- | --- | --- | --- | --- | --- |
| CC(/C=C/C(C)=C/[C@@H]1Cc2nc(cs2)CCCCC(=O)O[C@@H](C)C/C(C)=C/C=C\C(=O)O1)=C\CN(C)C [DMDA, des-methyl des-amino pateamine A] | induced only glycolysis | increased the anti-inflammatory surface marker TREM2 | did not affect the inflammatory environment | did not induce apoptosis | No effect | about 6% | exhibited low permeability | – | – |
| CC(/C=C/C(C)=C/[C@@H]1Cc2nc(cs2)[C@@H](C)C[C@@H](N)CC(=O)O[C@@H](C)C/C(C)=C/C=C\C(=O)O1)=C\CN(C)C [PatA, pateamine A] | induced oxidative phosphorylation and glycolysis | – | did not affect the inflammatory environment | did not induce apoptosis | No effect | – | no permeability was detected | induced the pro-inflammatory marker CD80 | reduced the anti-inflammatory marker CD206 |
